In PubChem BioAssay AID248 (DTP/NCI, 2004):
Values joined by “and” are separate entries in the source; they are usually repeats but may differ in a detail not shown here. Equal entries are not always repeated. Toxic doses and inconclusive results are not listed. No stated cut-off is given here; in the data, active means T/C of 150% or more; inactive means T/C below 125%.

System: L1210 leukemia ip in BDF1 mice, survival T/C
Test: NCI In Vivo Anticancer Drug Screen. Data for tumor model L1210 Leukemia (intraperitoneal) in B6D2F1 (BDF1) mice
Settings: endpoint: mean survival time, higher = longer survival
Procedure, shortened: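 Value reflects the ratio of survival in compound-treated mice to survival in vehicle-treated controls, with both groups carrying the same transplanted tumor.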

Measured: T/C

O=CC(NC(=O)N(CCCl)N=O)C(O)C(O)C(O)CO (stereo not drawn)
active: dose: 2.0 mg/kg/injection, schedule: Q01DX009 (ip), vehicle: carboxymethylcellulose (CMC) 169 % of control | dose: 2.0 mg/kg/injection, schedule: Q01DX009 (ip), vehicle: other 163 % of control | dose: 2.0 mg/kg/injection, schedule: Q01DX009 (ip), vehicle: saline 172 % of control | dose: 3.0 mg/kg/injection, schedule: Q01DX009 (ip), vehicle: carboxymethylcellulose (CMC) 186 % of control | dose: 3.0 mg/kg/injection, schedule: Q01DX009 (ip), vehicle: other 180 % of control | dose: 3.0 mg/kg/injection, schedule: Q01DX009 (ip), vehicle: saline 259 % of control | dose: 4.4 mg/kg/injection, schedule: Q01DX009 (ip), vehicle: carboxymethylcellulose (CMC) 204 % of control | dose: 4.4 mg/kg/injection, schedule: Q01DX009 (ip), vehicle: other 290 % of control | dose: 4.4 mg/kg/injection, schedule: Q01DX009 (ip), vehicle: saline 308 % of control | dose: 4.5 mg/kg/injection, schedule: Q01DX009 (ip), vehicle: saline 154 % of control | dose: 6.0 mg/kg/injection, schedule: Q01DX001 (ip), vehicle: carboxymethylcellulose (CMC) 152 % of control | dose: 6.0 mg/kg/injection, schedule: Q01DX001 (ip), vehicle: other 154 % of control | dose: 6.7 mg/kg/injection, schedule: Q01DX009 (ip), vehicle: carboxymethylcellulose (CMC) 318 % of control | dose: 6.7 mg/kg/injection, schedule: Q01DX009 (ip), vehicle: other 151 % of control | dose: 6.7 mg/kg/injection, schedule: Q01DX009 (ip), vehicle: saline 471 % of control | dose: 6.8 mg/kg/injection, schedule: Q01DX009 (ip), vehicle: saline 207 % of control | dose: 9.0 mg/kg/injection, schedule: Q01DX001 (ip), vehicle: carboxymethylcellulose (CMC) 208 % of control and 213 % of control | dose: 9.0 mg/kg/injection, schedule: Q01DX001 (ip), vehicle: other 155 % of control | dose: 9.0 mg/kg/injection, schedule: Q01DX001 (ip), vehicle: saline 336 % of control | dose: 10.0 mg/kg/injection, schedule: Q01DX009 (ip), vehicle: carboxymethylcellulose (CMC) 281 % of control | dose: 10.0 mg/kg/injection, schedule: Q01DX009 (ip), vehicle: saline 152 % of control and 243 % of control | dose: 13.0 mg/kg/injection, schedule: Q01DX001 (ip), vehicle: carboxymethylcellulose (CMC) 273 % of control and 302 % of control | dose: 13.0 mg/kg/injection, schedule: Q01DX001 (ip), vehicle: other 272 % of control | dose: 13.0 mg/kg/injection, schedule: Q01DX001 (ip), vehicle: saline 211 % of control and 424 % of control | dose: 18.0 mg/kg/injection, schedule: Q01DX001 (ip), vehicle: saline 505 % of control | dose: 20.0 mg/kg/injection, schedule: Q01DX001 (ip), vehicle: carboxymethylcellulose (CMC) 455 % of control and 531 % of control | dose: 20.0 mg/kg/injection, schedule: Q01DX001 (ip), vehicle: other 575 % of control | dose: 20.0 mg/kg/injection, schedule: Q01DX001 (ip), vehicle: saline 296 % of control and 486 % of control | dose: 26.0 mg/kg/injection, schedule: Q01DX001 (ip), vehicle: saline 505 % of control | dose: 30.0 mg/kg/injection, schedule: Q01DX001 (ip), vehicle: carboxymethylcellulose (CMC) 282 % of control and 537 % of control | dose: 30.0 mg/kg/injection, schedule: Q01DX001 (ip), vehicle: other 506 % of control | dose: 30.0 mg/kg/injection, schedule: Q01DX001 (ip), vehicle: saline 284 % of control and 617 % of control | dose: 44.0 mg/kg/injection, schedule: Q01DX001 (ip), vehicle: carboxymethylcellulose (CMC) 162 % of control | dose: 45.0 mg/kg/injection, schedule: Q01DX001 (ip), vehicle: carboxymethylcellulose (CMC) 266 % of control | dose: 45.0 mg/kg/injection, schedule: Q01DX001 (ip), vehicle: other 153 % of control
inactive: dose: 10.0 mg/kg/injection, schedule: Q01DX009 (ip), vehicle: other 107 % of control

Cc1nnc(NC(=O)CCl)s1
inactive: dose: 100.0 mg/kg/injection, schedule: Q01DX001 (ip), vehicle: other 107 % of control | dose: 100.0 mg/kg/injection, schedule: Q01DX009 (ip), vehicle: Klucel (hydroxypropylcellulose) (HPC) 98 % of control | dose: 100.0 mg/kg/injection, schedule: Q04DX003 (ip), vehicle: other 98 % of control | dose: 200.0 mg/kg/injection, schedule: Q01DX001 (ip), vehicle: other 100 % of control | dose: 200.0 mg/kg/injection, schedule: Q04DX003 (ip), vehicle: other 106 % of control | dose: 400.0 mg/kg/injection, schedule: Q01DX001 (ip), vehicle: other 98 % of control | dose: 400.0 mg/kg/injection, schedule: Q04DX003 (ip), vehicle: other 101 % of control
